# Measured values from the supplement of paper PMC10307832.
# Assays:
# Assay in all cases: relative viability (nuclei count vs DMSO), 5 days (fraction); higher = more cells survive
# [1] = compound: CC(C)N(CCCNC(=O)Nc1ccc(C(C)(C)C)cc1)C[C@H]1O[C@@H](n2ccc3c(N)ncnc32)[C@H](O)[C@@H]1O + COc1cc2c(Oc3ccc(NC(=O)C4(C(=O)Nc5ccc(F)cc5)CC4)cc3F)ccnc2cc1OCCCN1CCOCC1 [Foretinib] (partner 0.25 µM)
# How it was run: (§1)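 Lung cancer cell lines, seeded in 1536-well plates, were treated the following day by pin tool with a single drug or with five library-drug doses (not always all listed) in √10 steps on top of a fixed anchor-drug dose. Cells were fixed and nuclei stained in one step after 5 days, and nuclei were counted. Relative viability is the nuclei count for treated wells divided by that for vehicle wells, reported as medians of duplicate plates.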
# [2] = compound: CC(C)N(CCCNC(=O)Nc1ccc(C(C)(C)C)cc1)C[C@H]1O[C@@H](n2ccc3c(N)ncnc32)[C@H](O)[C@@H]1O + CS(=O)(=O)N1CCN(Cc2cc3nc(-c4cccc5[nH]ncc45)nc(N4CCOCC4)c3s2)CC1 [Pictilisib] (partner 1 µM)
# How it was run: as §1
# Shikonin = compound: CC(C)=CC[C@@H](O)C1=CC(=O)c2c(O)ccc(O)c2C1=O [Shikonin]
# How it was run: (§2)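 Lung cancer cell lines in 1536-well plates were exposed by pinning to five library-drug doses (not always all listed) √10 apart, following an overnight hold at 37 °C. MetaXpress counted Hoechst-stained nuclei from 4× images taken after 5 days without medium change. Viability is the median ratio of treated-well to vehicle-well nuclei across plates. Plates required control CV below 25% and at least one doubling.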
# [3] = compound: CC(C)N(CCCNC(=O)Nc1ccc(C(C)(C)C)cc1)C[C@H]1O[C@@H](n2ccc3c(N)ncnc32)[C@H](O)[C@@H]1O
# How it was run: as §2
cell line,measurement,setting,value
UMC-11,relative viability,[1]; first compound 0.08 µM,0.979
same,relative viability,[1]; first compound 0.253 µM,0.984
same,relative viability,[1]; first compound 0.8 µM,1.06
same,relative viability,[1]; first compound 2.53 µM,0.975
same,relative viability,[1]; first compound 8 µM,1.02
same,relative viability,[2]; first compound 0.08 µM,0.683
same,relative viability,[2]; first compound 0.253 µM,0.662
same,relative viability,[2]; first compound 0.8 µM,0.783
same,relative viability,[2]; first compound 2.53 µM,0.805
same,relative viability,[2]; first compound 8 µM,0.745
same,relative viability,Shikonin; 0.01 µM,0.943
same,relative viability,Shikonin; 0.1 µM,0.993
same,relative viability,Shikonin; 0.3162 µM,1.07
same,relative viability,Shikonin; 1 µM,1.08
same,relative viability,[3]; 0.08 µM,0.953
same,relative viability,[3]; 0.253 µM,0.875
same,relative viability,[3]; 0.8 µM,0.82
same,relative viability,[3]; 2.53 µM,0.999
same,relative viability,[3]; 8 µM,1.01
